# Experimental data: EP4755880A1, “SUBSTITUTED NITROGEN-CONTAINING BICYCLIC COMPOUND AND USE THEREOF” (Sunshine Lake Pharma Co., Ltd., priority 2023, dated 2025)
# Assays:
# in vivo [1] = conditions: BALB/c, mouse
# Procedure: (§1) The compounds of the present invention were administered to test animals in the form of 5% DMSO + 30% PEG400 + 65% physiological saline, 10% DMSO + 10% Kolliphor HS15 + 80% Saline, 10% DMSO + 89% (25% SBE-B-CD) + (2% HCl), 20% PEG400 + 80% sterile water for injection, or 10% DMA+ 10% HS15 + 30% PEG400 + 50% sterile aqueous solution for injection. Animals were fasted for 12 hours before administration but had free access to water. For the intravenous administration group, the dose was 1 mg/kg. Blood samples (approximately 0.15 mL) were collected intravenously at the following time points after administration: 0.083, 0.25, 0.5, 1.0, 2.0, 4.0, 6.0, 8.0 and 24 h (dogs) or 0.083, 0.25, 0.5, 1.0, 2.0, 5.0, 7.0 and 24 h (mice and rats) or 0.083, 0.25, 0.5, 1.0, 2.0, 6.0, 8.0 and 24 h (monkeys). EDTA-K2 was pre-added to the blood collection tube as an anticoagulant. The blood samples were centrifuged at 12,000 rpm for 2 minutes, and plasma was collected and stored at -20 °C or - 70 °C. For the gavage administration group, the dosage was 1 mg/kg (mice, dogs, and monkeys) or 5 mg/kg (rats). After administration, venous blood samples (approximately 0.15 mL) were collected at the following time points: 0.25, 0.5, 1.0, 2.0, 4.0, 6.0, 8.0, and 24 h (dogs) or 0.25, 0.5, 1.0, 2.0, 5.0, 7.0, and 24 h (mice and rats) or 0.25, 0.5, 1.0, 2.0, 6.0, 8.0, and 24 h (monkeys). EDTA-K2 was pre-added to the blood collection tube as an anticoagulant. The blood samples were centrifuged at 12,000 rpm for 2 minutes, and plasma was collected and stored at -20 °C or -70 °C.
# (§2) The collected plasma samples were processed (frozen plasma was thawed at room temperature, vortexed for 15 s to mix, 10-20 µL of plasma was taken, 120-150 µL of acetonitrile solution containing internal standard was added, vortexed for 5 min to mix, centrifuged at 4,000 rpm for 5 min, 100 µL of supernatant was taken, and 120-150 Ml/water (v/v = 1/1) was added and mixed). The concentration of compounds in the plasma was then analyzed by LC-MS/MS.
# MDA-MB-436 cells = assay: Inhibition of proliferation of MDA-MB-436 cells (CellTiter-Glo); type: cell-based; conditions: Homo sapiens, MDA-MB-436, 168 h, 7 days incubation
# How it was run: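 MDA-MB-436 cells seeded at 500-1000 cells/well, allowed to attach overnight, then treated with 9 concentrations from 10000 to 0.152 nM final (4-fold steps) in triplicate for 7 days at 37°C, 5% CO2. Viability by CellTiter-Glo luminescence; IC50 from fitted curve.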
# DLD-1 BRCA2(-/-) cells = assay: Inhibition of proliferation of DLD-1 BRCA2(-/-) cells (CTG method); type: cell-based; conditions: Homo sapiens, DLD-1, 168 h; 7 days incubation, CellTiter-Glo
# How it was run: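 DLD-1 BRCA2(-/-) cells, 1,000 per well, attached overnight, then exposed to compound at final 10000 to 0.152 nM (4-fold series) in triplicate for 7 days at 37 °C, 5% CO2. Viability by CellTiter-Glo luminescence; IC50 for proliferation inhibition from a fitted curve.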
# in vivo [2] = conditions: SD, rat
# Procedure: as §1, §2
# Table D Pharmacokinetic parameters of compounds of the present invention in SD rats
structure (smiles),measurement,setting,value
"CC#Cc1cc(CN2CC=C(c3ccc(C(=O)NC)nc3F)CC2)cc2[nH]c(=O)c(C)nc12 [Example 12, 2-fluoro-N-methyl-1'-((2-methyl-3-oxo-8-(prop-1-yn-1-yl)-3,4-dihydroquinoxalin-6-yl)methyl)-1',2',3',6'-tetrahydro-[3,4'-bipyridine]-6-carboxamide]",AUC(0-t),"in vivo [1]; iv, 2 mg/kg",1430 ng·h/mL
same,Cmax,"in vivo [1]; iv, 2 mg/kg",1630 ng/mL
same,half-life,"in vivo [1]; iv, 2 mg/kg",1.4 h
same,AUC(0-t),"in vivo [1]; po, 5 mg/kg",4200 ng·h/mL
same,Cmax,"in vivo [1]; po, 5 mg/kg",2110 ng/mL
same,half-life,"in vivo [1]; po, 5 mg/kg",1.9 h
same,IC50,MDA-MB-436 cells,0.6 nM
same,IC50,DLD-1 BRCA2(-/-) cells,1.9 nM
same,AUC(0-t),"in vivo [2]; iv, 1 mg/kg",1260 ng·h/mL
same,Cmax,"in vivo [2]; iv, 1 mg/kg",897 ng/mL
same,half-life,"in vivo [2]; iv, 1 mg/kg",2 h
same,AUC(0-t),"in vivo [2]; po, 5 mg/kg",3770 ng·h/mL
same,Cmax,"in vivo [2]; po, 5 mg/kg",922 ng/mL
same,half-life,"in vivo [2]; po, 5 mg/kg",2.4 h
